This note sets out measurements from publication PMC7400437, “Synthesis and Evaluation of the Antibacterial Activities of 13-Substituted Berberine Derivatives” (Antibiotics, 2020).

The subject of one data set is S. aureus. As to the kind of experiment: MIC, antimicrobial activity assay. It counts as cell-based, Staphylococcus aureus (ATCC 6538P). Particulars: Staphylococcus aureus.
The test system of a further data set is C. rodentium. Briefly: MIC, antimicrobial activity assay. It counts as cell-based, Citrobacter rodentium (ATCC 51116). Particulars: Citrobacter rodentium; Table 4, Gram-negative.
In a further data set the test system is L. lactis. Briefly: MIC, antimicrobial activity assay. Particulars: Lactococcus lactis; Table 4, Gram-positive. It counts as cell-based, Lactococcus lactis (DSM 20481).
The next data set relates to C. albicans. Briefly: MIC, antifungal activity assay. Particulars: Candida albicans; Table 1 first screening; 35 °C, 24 h; read-out: Minimal Inhibitory Concentration (MIC) C. albicans. The class given is cell-based, Candida albicans (DSM 10697).
Another data set concerns B. subtilis. Briefly: MIC, antimicrobial activity assay. The class given is cell-based, Bacillus subtilis (ATCC 6633). Particulars: Bacillus subtilis.
In data set [1] the test system is S.aureus (Methicillin-resistant). Briefly: MIC, antimicrobial activity assay. The class given is cell-based. The note with it: Staphylococcus aureus, read-out: MIC S.aureus (Methicillin-resistant).
In the next data set the test system is B. cereus. Briefly: MIC, antimicrobial activity assay. It counts as cell-based. The note with it: Bacillus cereus; Table 4, Gram-positive.
For the next data set, the system named is H. pylori. Briefly: MIC, antimicrobial activity assay. It counts as cell-based, Helicobacter pylori (ATCC 43504). The note with it: Helicobacter pylori; Table 4, Gram-negative; microaerobic.
The next data set concerns C. difficile. As to the kind of experiment: MIC, antimicrobial activity assay. The class given is cell-based, Clostridium difficile (DSM 1296). Particulars: Clostridioides difficile; Table 4, Gram-positive; anaerobic.
The subject of the next data set is S. flexneri. Briefly: MIC, antimicrobial activity assay. The class given is cell-based, Shigella flexneri (ATCC 12022). Particulars: Shigella flexneri; Table 4, Gram-negative.
Data set [2] has as its system HepG2 (human liver cells). Briefly: Cytotoxic assay on human cells (resazurin). The class given is cell-based. The note with it: HepG2, 48 h, read-out: Inhibitory Concentration 50 (IC50) on cell viability, HEPG2. As for the experimental part: (§1) The toxicity of berberine and berberine’s derivatives on human cells was evaluated using resazurin assay as previously described. Human cells used were BEAS (ATCC CRL-9609), Caco2 (ATCC HTB-37) and HepG2 (ATCC HB-8065) corresponding respectively to human airway epithelial cells, intestinal epithelial cells and liver cells. Cells were cultured in Dulbecco’s modified essential medium (DMEM) supplemented with 10% fetal bovine serum (FBS), 1% L-glutamine and 1% antibiotics (Thermo Fisher Scientific, Illkirch-Graffenstaden, France). Cells were routinely grown on 25 cm^2 flasks and maintained in a 5% CO2 incubator at 37 °C. For toxicity assay, cells were detached using trypsin–EDTA solution (Thermo Fisher Scientific), counted using Mallasez counting chamber and seeded into 96-well cell culture plates (Greiner bio-One, Dominique Dutscher, Brumath, France) at approximately 10,000 cells per well. The cells were left to grow for 48–72 h at 37 °C in a 5% CO2 incubator until they reached confluence. Media from wells was then aspirated and cells were treated with 100 µL of culture media containing increasing concentrations of berberine or berberine’s derivatives obtained by serial dilution (from 0 to 50 µM, 1:2 dilution), DMSO (0.5% DMSO final concentration) was used as negative control. After 48 h incubation at 37 °C in a 5% CO2 incubator, cell viability was evaluated using resazurin based in vitro toxicity assay kit (Sigma-Aldrich) following manufacturer’s instructions. Briefly, cell wells were emptied, and cells were treated with 100 µL of resazurin diluted 1:10 in sterile PBS containing calcium and magnesium (PBS^++, pH 7.4). After 4 h incubation at 37 °C, fluorescence intensity (excitation wavelength of 530 nm/emission wavelength of 590 nm) was measured using Synergy Mx microplate reader (Biotek). The fluorescence values were normalized by the controls (DMSO treated cells) and expressed as percent viability. The IC50 values of berberine and berberine’s derivatives on cell viability (i.e., the concentration of derivative causing a reduction of 50% of the cell viability) were calculated using GraphPad® Prism 7 software (San Diego, CA, USA). t-Test and two ways ANOVA analyses were used to address the significant differences between mean values with significance set at p < 0.05.
A general note: Resazurin is reduced to fluorescent resorufin, in cell work by metabolically active cells.

The subject of data set [3] is BEAS (human airway epithelial cells). Briefly: Cytotoxic assay on human cells (resazurin). The class given is cell-based. The note with it: Epithelial cell, 48 h, means +/−SD, read-out: Inhibitory Concentration 50 (IC50) on cell viability, BEAS. As for the experimental part: as §1
The subject of data set [4] is Caco2 (human intestinal epithelial cells). As to the kind of experiment: Cytotoxic assay on human cells (resazurin). The note with it: for IC50: Homo sapiens, Caco-2, 48 h, read-out: Inhibitory Concentration 50 (IC50) on cell viability, Caco2. The class given is cell-based. As for the experimental part: as §1
Another data set relates to P. aeruginosa. Briefly: MIC, antimicrobial activity assay. The class given is cell-based, Pseudomonas aeruginosa (ATCC 9027). Particulars: Pseudomonas aeruginosa.
A further data set deals with V. diabolicus. Briefly: MIC, antimicrobial activity assay. The note with it: Vibrio diabolicus; Table 4, Gram-negative. It counts as cell-based.
Data set [5] relates to B. subtilis (Nisin-resistant). Briefly: MIC, antimicrobial activity assay. The note with it: Bacillus subtilis, read-out: MIC B. subtilis (Nisin-resistant). It counts as cell-based, nisin-resistant B. subtilis (DSMZ 347).
The test system of the next data set is S. pyogenes. As to the kind of experiment: MIC, antimicrobial activity assay. It counts as cell-based, Streptococcus pyogenes (DSM 20565). Particulars: Streptococcus pyogenes; Table 4, Gram-positive; anaerobic.
A further data set has as its system E. coli. Briefly: MIC, antimicrobial activity assay. It counts as cell-based, Escherichia coli (ATCC 8739). Particulars: Escherichia coli.
For the next data set, the system named is K. pneumonia. Briefly: MIC, antimicrobial activity assay. It counts as cell-based, Klebsiella pneumoniae (DSMZ 26371). Particulars: Klebsiella pneumoniae; Table 4, Gram-negative.
The test system of data set [6] is P. aeruginosa (Quinolone-resistant). As to the kind of experiment: MIC, antimicrobial activity assay. It counts as cell-based. The note with it: Pseudomonas aeruginosa, read-out: MIC P. aeruginosa (Quinolone-resistant).
In a further data set the test system is C. farmer. As to the kind of experiment: MIC, antimicrobial activity assay. The class given is cell-based, Citrobacter farmeri (ATCC 51633). Particulars: Citrobacter farmeri; Table 4, Gram-negative.
A further data set deals with A. gandavensis. Briefly: MIC, antimicrobial activity assay. Particulars: Arthrobacter gandavensis; Table 4, Gram-positive. The class given is cell-based, Arthrobacter gandavensis (DSM 2447).
Data set [7] has as its system E. faecalis (Vancomycin-resistant). As to the kind of experiment: MIC, antimicrobial activity assay. The class given is cell-based, vancomycin-resistant Enterococcus faecalis (DSMZ 13591). The note with it: Enterococcus faecalis, read-out: MIC E. faecalis (Vancomycin-resistant).
In the next data set the test system is C. perfringens. As to the kind of experiment: microbe, parasite or virus in culture. It counts as cell-based, Clostridium perfringens (ATCC 13124). Particulars: Clostridium perfringens, read-out: MIC C. perfringens.
A further data set relates to A. baumannii. As to the kind of experiment: MIC, antimicrobial activity assay. It counts as cell-based, Acinetobacter baumannii (CIP 110431). The note with it: Acinetobacter baumannii; Table 4, Gram-negative.
The next data set relates to M. smegmatis. Briefly: microbe, parasite or virus in culture. It counts as cell-based, Mycobacterium smegmatis (mc2155, ATCC 700084). Particulars: Mycolicibacterium smegmatis, 72 h, read-out: Minimal Inhibitory Concentration (MIC) M. smegmatis.
For another data set, the system named is S. enterica. As to the kind of experiment: MIC, antimicrobial activity assay. It counts as cell-based, Salmonella enterica (CIP 80.39). Particulars: Salmonella enterica; Table 4, Gram-negative.
The test system of a further data set is V. alginolyticus. Briefly: MIC, antimicrobial activity assay. The note with it: Vibrio alginolyticus; Table 4, Gram-negative. It counts as cell-based, Vibrio alginolyticus (DSM 2171).
Setting [8] is: Table 1 first screening, read-out: Minimal Inhibitory Concentration (MIC) S. aureus.
Where [9] appears, read: Table 1 first screening, read-out: Minimal Inhibitory Concentration (MIC) B. subtilis.
The mark [10] stands for this setting: Table 1 first screening, read-out: Minimal Inhibitory Concentration (MIC) P. aeruginosa.
[11] abbreviates: Table 1 first screening, read-out: Minimal Inhibitory Concentration (MIC) E. coli.

Like-named read-outs stand apart in the source and are kept apart here.

As for `COc1ccc2c(Cc3ccc(CI)cc3)c3[n+](cc2c1OC)CCc1cc2c(cc1-3)OCO2` [Compound 8, 13-(4-Iodomethylbenzyl)Berberine], the MIC with S. aureus (setting [8]) is 6.25 µM; with S. aureus (Table 4, Gram-positive, read-out: MIC S. aureus), 6.25 µM; in the data set on C. rodentium, over 100 µM; in the data set on L. lactis, 3.12 to 6.25 µM; in the data set with C. albicans, 50 µM; with B. subtilis (setting [9]) it was 6.25 µM. Further, the MIC came to 6.25 µM in the data set with B. subtilis (Table 4, Gram-positive, read-out: MIC B. subtilis); 12.5 µM in [1]; 12.5 µM against B. cereus; 6.25 µM with H. pylori; 100 µM against C. difficile; 50 µM in the data set with S. flexneri. Moreover, the MIC in the data set on P. aeruginosa (setting [10]) is over 100 µM; in the data set on P. aeruginosa (Table 4, Gram-negative, read-out: MIC P. aeruginosa), over 100 µM; against V. diabolicus it was over 100 µM; in data set [5], 12.5 µM; in the data set with S. pyogenes, 12.5 µM; in the data set with E. coli (setting [11]), over 100 µM. Also, the MIC in the data set on E. coli (Table 4, Gram-negative, read-out: MIC E. coli) is over 100 µM; against K. pneumonia, over 100 µM; in data set [6], over 100 µM; in the data set on C. farmer, over 100 µM; in the data set with A. gandavensis, 3.12 µM; in data set [7] it was 50 µM. Also, the MIC was 100 µM in the data set on C. perfringens; over 100 µM against A. baumannii; 25 µM in the data set on M. smegmatis; over 100 µM against S. enterica; 6.25 µM in the data set with V. alginolyticus. For the same compound, the results for the IC50 in data set [2], in [3] and in data set [4] were over 50 µM, 23.4 ± 4.5 µM and over 50 µM, respectively. Moreover, the “therapeutic index Caco2” value in [4] (IC50 on Caco2 divided by MIC on S. aureus) is given as 11.18.
As to `C=Cc1ccc(Cc2c3[n+](cc4c(OC)c(OC)ccc24)CCc2cc4c(cc2-3)OCO4)cc1` [Compound 9, 13-(4-Ethenylbenzyl)Berberine], the MIC in the data set with S. aureus (setting [8]) was 3.12 µM; with C. albicans, 50 µM; with B. subtilis (setting [9]) it was 12.5 µM; in the data set with P. aeruginosa (setting [10]), over 100 µM; with E. coli (setting [11]), over 100 µM; in the data set on M. smegmatis it was 6.25 µM. Also, the IC50 in data set [2] is over 50 µM; in [3], 12.8 ± 1.6 µM; in data set [4], 24.8 ± 3.6 µM.
In the case of `COc1ccc2c(Cc3ccc(CN)cc3)c3[n+](cc2c1OC)CCc1cc2c(cc1-3)OCO2` [Compound 11, 13-(4-Aminomethylbenzyl)Berberine], the MIC is 25 µM in the data set with S. aureus (setting [8]); 100 µM in the data set on C. albicans; 25 µM in the data set with B. subtilis (setting [9]); over 100 µM in the data set with P. aeruginosa (setting [10]); over 100 µM with E. coli (setting [11]); 50 µM in the data set with M. smegmatis. Also, the IC50 in data set [2], in data set [3] and in data set [4] was over 50 µM each time.
`COc1ccc2c(Cc3ccc4c(c3)OCO4)c3[n+](cc2c1OC)CCc1cc2c(cc1-3)OCO2` [Compound 13, 13-[(2H-1,3-Benzodioxol-5-yl)methyl]Berberine]: the MIC was 6.25 to 12.5 µM in the data set on S. aureus (setting [8]); 50 µM in the data set on C. albicans; 25 µM in the data set with B. subtilis (setting [9]); over 100 µM in the data set on P. aeruginosa (setting [10]); over 100 µM with E. coli (setting [11]); 12.5 µM in the data set with M. smegmatis. Besides, the IC50 in data set [2] was over 50 µM; in data set [3], 16.9 ± 1.5 µM; in data set [4] it was 31.4 ± 3.8 µM.
As for `COc1ccc(Cc2c3[n+](cc4c(OC)c(OC)ccc24)CCc2cc4c(cc2-3)OCO4)c(OC)c1OC` [Compound 14, 13[(2,3,4-Trimethoxyphenyl)methyl]Berberine], the MIC in the data set with S. aureus (setting [8]) is 25 µM; with C. albicans, over 100 µM; in the data set with B. subtilis (setting [9]), 50 µM; in the data set with P. aeruginosa (setting [10]) it was over 100 µM; in the data set on E. coli (setting [11]) it was over 100 µM; with M. smegmatis, 25 µM. The IC50 in data set [2], in data set [3] and in [4] was over 50 µM throughout.
For the compound `COc1ccc2c(Cc3ccc(-c4nc5ccccc5s4)cc3)c3[n+](cc2c1OC)CCc1cc2c(cc1-3)OCO2` [Compound 19], the MIC in the data set with S. aureus (setting [8]) is 1.5 to 3.12 µM; with C. albicans it was 6.25 µM; with B. subtilis (setting [9]), 1.5 µM; in the data set on P. aeruginosa (setting [10]), over 100 µM; with E. coli (setting [11]) it was over 100 µM; in the data set with M. smegmatis, 12.5 µM. Further, the IC50 amounted to 31.2 ± 7.1 µM in [2], 4.92 ± 0.6 µM in data set [3] and 12 ± 1.3 µM in data set [4].
